One assay deals with Plasmodium falciparum. Put plainly: In vitro activity vs. Plasmodium falciparum (modified semi-automated microdilution technique of Desjardins et al, [3H]-hypoxanthine). In kind it is cell-based. Conditions: Erythrocyte, human erythrocytes, RPMI 1640 + 10% human plasma, 37° C, number of tests in parentheses in own column. The method, then:
1. In vitro Activity vs. Plasmodium falciparum The in vitro activity of the test compounds was determined using a modification of the semi-automated microdilution technique of Desjardins et al (1979). Initial dilutions were prepared from 1/100th molecular weight (in mg) of the compounds dissolved in dry ethanol, with the first 1:100 dilution being in ethanol and subsequent dilutions in RPMI 1640 medium supplemented with 10% v/v human plasma. Serial 1:2 drug dilutions were prepared in microtitration trays using microdiluters, each dilution being set up in triplicate. To this was added RPMI 1640 medium supplemented with 10% v/v human plasma, fresh and infected type A Rhesus positive human erythrocytes to yield a haematocrit of 3% and a parasitaemia of 0.25-0.5%. [^3 H]-hypoxanthine was added to give a final concentration of 12.5-16 μCi/ml of culture. The plates were sealed and incubated in a modular incubator in a gas mixture of 5% O2; 3% CO2 and 92% N2 by volume at 37° C. The test was completed as described by Desjardins et at (1979). Data were analysed to yield IC50 values by best fit to a sigmoidal dose-response curve.
(In general: Dilution methods test growth across graded concentrations, often in twofold steps.)

For another assay, the system named is P. yoelii. Nature of the assay: Mouse 4-day suppressive test vs P. yoelii. The following applies: Plasmodium yoelii, P. yoelii YM strain, 7 oral doses in 4 days, CD1 mice, parasitaemia day 5. Format: in vivo. Here is the method:
2. In vivo Activity vs. P.yoelii in the Mouse
In vivo activity was determined using the modified 4-day suppressive test involving an infection of the YM strain of P.yoelii by 3×10^6 parasitized erythrocytes/ml and 7 oral doses given in 4 days in CD1 mice. Drugs were formulated by ball milling overnight in 0.25% celacol with stainless steel balls to form a fine particle suspension. The total requirement was formulated at the beginning of a test and thereafter stored at 4° C. On the morning of day 5 smears of tail blood were prepared from each mouse, the parasitaemias counted and the inhibition as compared to control animals calculated. Data were analysed to yield ED50 values by the best fit to a sigmoidal dose response curve, and the results are presented in Table 2 below.

By IC50 is commonly meant the concentration that gives 50% inhibition. The ED50 is the dose that gives a 50% effect, or the effect in half of the subjects. Higher therefore signals weaker potency.

Consider `Cc1cc(=O)c(-c2ccc(Oc3ccc(Cl)cc3)cc2)c(C)[nH]1` [Example 1, 3-(4-(4-Chlorophenoxy)phenyl)-2,6-dimethylpyridin-4(1H)-one], for which the half-maximal inhibitory concentration (IC50) in the assay with Plasmodium falciparum came out at 2500 nM. For the same compound, the 50% effect level with P. yoelii (ED50) was put at a dose of 2.5 mg/kg. Taken in the same sequence, the figures for `Cc1[nH]c(C)c(-c2ccc(Oc3ccc(Cl)cc3)cc2)c(=O)c1Br` [Example 2, 3-Bromo-5-[4-(4-chlorophenoxy)phenyl]-2,6-dimethylpyridin-4(1H)-one] were 200 nM and 0.7 mg/kg. As to `Cc1[nH]c(C)c(-c2ccc(Oc3ccc(Cl)cc3)cc2)c(=O)c1Cl` [Example 3, 3-Chloro-5-(4-(4-chlorophenoxy)phenyl)-2,6-dimethylpyridin-4(1H)-one], the IC50 in the assay on Plasmodium falciparum was 1400 nM. The ED50 with P. yoelii was 1.6 mg/kg. For `Cc1cc(=O)c(-c2ccc(Oc3ccc(C(F)(F)F)cc3)cc2)c(C)[nH]1` [Example 4, 3-(4-(4-Trifluoromethylphenoxy)phenyl)-2,6-dimethylpyridin-4(1H)-one], in that order: 1100 nM and 1.25 mg/kg. Taken in the same sequence, the figures for `Cc1[nH]c(C)c(-c2ccc(Oc3ccc(C(F)(F)F)cc3)cc2)c(=O)c1Br` [Example 5, 3-Bromo-5-(4-(4-trifluoromethylphenoxy)phenyl)-2,6-dimethylpyridin-4(1H)-one] were 220 nM and 0.26 mg/kg. Taken in the same sequence, the figures for `Cc1cc(=O)c(-c2ccc(-c3ccc(Cl)cc3)cc2)c(C)[nH]1` [Example 6, 3-(4'-Chloro-4-biphenylyl)-2,6-dimethylpyridin-4(1H)-one] were 8400 nM and 1.6 mg/kg. For `Cc1[nH]c(C)c(-c2ccc(-c3ccc(Cl)cc3)cc2)c(=O)c1Br` [Example 7, 3-Bromo-5-(4'-chloro-4-biphenylyl)-2,6-dimethylpyridin-4(1H)-one], the half-maximal inhibitory concentration (IC50) in the assay with Plasmodium falciparum came to 2000 nM. Further, in the assay on P. yoelii, it took a dose of 1.4 mg/kg to reach the 50% effect level (ED50).

As to `Cc1[nH]c(C)c(-c2ccc(-c3ccc(Cl)cc3)cc2)c(=O)c1Cl` [Example 8, 3-Chloro-5-(4'-chloro-4-biphenylyl)-2,6-dimethylpyridin-4(1H)-one], the IC50 in the assay on Plasmodium falciparum was determined as 500 nM. Besides, in the assay with P. yoelii, the ED50 was determined as 0.6 mg/kg. With `CCCCCCCCc1c(C)[nH]c(C)c(C#N)c1=O` [Example 10, 5-Cyano-2,6-dimethyl-3-octylpyridin-4(1H)-one], the half-inhibitory concentration (IC50) in the assay on Plasmodium falciparum is 2300 nM.

For the compound `Cc1c(Br)c(=O)c(-c2ccc(Cl)cc2)c(C)n1C` [Example 12, 3-Bromo-5-(4-Chlorophenyl)-1,2,6-trimethylpyridin-4-one], in the assay with Plasmodium falciparum, the IC50 stood at 23500 nM. Besides, in the assay with P. yoelii, the 50% effective dose (ED50) is 16.4 mg/kg.

Take `Cc1[nH]c(C)c(-c2ccc(Oc3ccc(OC(F)(F)F)cc3)cc2)c(=O)c1Br` [Example 14, 3-Bromo-5-(4-(4-trifluoromethoxyphenoxy)phenyl)-2,6-dimethylpyridin-4(1H)-one]: the IC50 in the assay with Plasmodium falciparum is 23 nM. In the assay with P. yoelii, this compound gave an ED50 of 0.34 mg/kg. On to `Cc1[nH]c(C)c(-c2ccc(Oc3ccc(OC(F)(F)F)cc3)cc2)c(=O)c1Cl` [Example 15, 3-Chloro-5-(4-(4-trifluoromethoxyphenoxy)phenyl)-2,6-dimethylpyridin-4(1H)-one], for which the IC50 in the assay on Plasmodium falciparum turned out to be 20 nM. This compound registered an ED50 in the assay with P. yoelii of 0.19 mg/kg. As for `Cc1[nH]c(C)c(-c2ccc(Oc3ccc([S+](C)[O-])cc3)cc2)c(=O)c1Br` (stereo not drawn) [Example 16, 3-Bromo-2,6-dimethyl-5-(4-(4-methylsulphinylphenoxy)phenyl)pyridin-4(1H)-one], in the assay with Plasmodium falciparum, the IC50 was found to be 1600 nM.

Source of the values: patent publication US5403934A, “Heterocyclic compounds” (Burroughs Wellcome Co., priority 1990, dated 1995).
